Measured values from patent publication US8937066B2, “Amino derivatives of dihydro-1,3,5-triazine used in the treatment of ischemia and/or reperfusion related diseases” (Poxel, priority 2009, dated 2015).

Key:
[1] = system: human immortalized microvascular dermal endothelial cells HMEC-1; experiment: Mitochondrial membrane potential (TMRM, confocal microscopy) after ischemia/reperfusion; format: cell-based; settings: 10 mM for 30 min; for mitochondrial membrane potential after reperfusion: then 60 min ischemia and 90/120 min reperfusion
Protocol: The objective of this study is to evaluate the protective effect of the compound E 008 on vascular injury due to ischemia/reperfusion, by measuring the effect of E 008 on loss of mitochondrial membrane potential induced by ischemia/reperfusion.
The line of human immortalized microvascular dermal endothelial cells HMEC-1 was used.
The cells were treated according to the following scheme: • control group: no treatment, followed by ischemia of 60 min and reperfusion of 120 min. • metformin group: incubation with metformin at a concentration of 10 mM for 30 min, followed by ischemia of 60 min and reperfusion of 120 min. • E 008 group: incubation with the compound E 008 at a concentration of 10 mM for 30 min followed by ischemia of 60 min and reperfusion of 120 min. Measurement of Mitochondrial Membrane Potential
In order to measure the mitochondrial potential, the cells were incubated, throughout the above treatment, with the fluorescent probe tetramethylrhodamine methyl ester (TMRM) at a concentration of 30 nM.
They were analyzed in confocal microscopy before treatment, after 60 min of ischemia, after 90 min of reperfusion and after 120 min of reperfusion (FIG. 1).

[2] = system: infarct size / area at risk; experiment: Model of myocardial infarction in the rabbit (30 min coronary occlusion, 4 h reperfusion); format: in vivo; settings: for AN (area of necrosis) / AN/AR / AN/LV: group mean (extent of values)
Protocol: Male New Zealand albino rabbits weighing between 2.2 and 2.5 kg were anesthetized by intramuscular injection of xylazine (5 mg/kg) and ketamine (50 mg/kg). An intravenous infusion of a mixture of xylazine (20 to 50 μg/kg/min) and ketamine (40 to 100 μg/kg/min) was maintained throughout the test.
After a median cervical incision, a tracheotomy was performed and the animals were ventilated with ambient air. A cannula was inserted in the right internal jugular vein for administration of the medicinal products and fluids and in the left carotid artery for measurement of blood pressure. After an intravenous bolus administration of fentanyl ([…]), a left thoracotomy was performed at the level of the fourth left intercostal space. The pericardium was opened and the heart was exposed. A 3.0 suture thread attached to a small curved needle was passed around a marginal branch of the left circumflex coronary artery. The two ends of the thread were passed through a small vinyl tube to form a collar that could be tightened for occluding and released for reperfusing the artery. Body temperature was monitored via an intraperitoneal thermometer and kept constant by means of a heating block. The heart rate and arterial pressure were monitored continuously on a Gould recorder (Gould Inc., Cleveland, Ohio).
After surgery, a period of stabilization of 15 minutes was observed.
The rabbits are randomly distributed into 4 groups. All the animals undergo a prolonged occlusion of 30 minutes of the coronary artery, followed by 4 hours of reperfusion. Five minutes before reperfusion, the rabbits receive an intravenous injection of either: • a vehicle (volume corresponding to dose 1 or 2 of E 008) (Control, C), • E 008 at dose 1, • E 008 at dose 2, • of ciclosporin A (CsA) at 10 mg/kg.
The sample size is 8 to 10 animals per group. In these groups, the hearts were collected at the end of the period of 4 hours of reperfusion for subsequent evaluation of infarct size.
After 4 hours of reperfusion, the coronary artery was briefly reoccluded and 0.5 mg/kg of Uniperse blue pigment (Ciba-Geigy®, Hawthorne N.Y.) was injected intravenously for delimiting the area at risk in viva With this technique, the previously nonischemic myocardium appears blue, whereas the previously ischemic myocardium (area at risk) remains unstained.
The anesthetized rabbits were then euthanized by intravenous injection of pentobarbital. The heart was excised and cut into transverse slices with thickness of 5 to 6 mm, parallel to the atrioventricular sulcus. After removing the tissue of the right ventricle, each slice was weighed. The basal surface of each slice was photographed for later measurement of the area at risk. Each slice was then incubated for 15 minutes in a 1% solution of triphenyltetrazolium chloride at 37° C. for differentiating the myocardial zones that were infarcted (pale) and viable (brick red). The slices were then photographed again. Magnified projections of these slices were traced for determining the boundaries of the area at risk (AR) and of the area of necrosis (AN). The extent of these areas at risk and of necrosis was quantified by planimetry by computer and corrected relative to the weight of the tissue slices. The total weights of the area at risk and of the area of necrosis were then calculated and expressed in grams and as a percentage of total left ventricle (LV) and of the weight of the area at risk, respectively. […] Evaluation of infarct size was performed blind.
The results are presented in the following table in the form of value averaged for all the animals of a group, the figure in parentheses representing the extent of the values measured for the different animals.

[3] = system: complex I of the respiratory chain of endothelial cells; experiment: ROS production by complex I of the respiratory chain; format: cell-based; settings: by inhibiting reverse electron flow
[4] = E 008 1 mg/kg i.v. 5 min before reperfusion
[5] = E 008 5 mg/kg i.v. 5 min before reperfusion

Compound	mitochondrial membrane potential after reperfusion [1]	protective effect against loss of membrane potential compared with metformin ([1]; then 60 min ischemia and 120 min reperfusion)	AN (area of necrosis) [2, 4]	AN/AR [2, 4]	AN/LV [2, 4]	protection in the model of myocardial infarction ([2]; E 008 5 mg/kg i.v.)	AN (area of necrosis) [2, 5]	AN/AR [2, 5]	AN/LV [2, 5]	infarct size relative to ciclosporin A ([2]; E 008 5 mg/kg i.v. vs CsA 10 mg/kg)	infarct size relative to the control ([2]; i.v. 5 min before reperfusion, dose not given)	production of ROS by complex I of the respiratory chain [3]
CC1N=C(N)NC(N(C)C)=N1 (stereo not shown) [E 008]	protected from the damage due to reperfusion	better protective effect	0.31 (±0.15) g	33.9 (±12.2) %	11.8 (±5) %	significant protection	0.21 (±0.09) g	29.4 (±10.3) %	8.3 (±3.7) %	reduction in infarct size relative to ciclosporin A	significant reduction in infarct size	reduce the production of ROS
CN(C)C(=N)N=C(N)N [metformin, reference compound]	protected from the damage due to reperfusion											
